{"source": "patent US20230241245A1", "about": "“Therapeutic Carbon Nanomaterial H2S Oxidants for Biological Polysulfide Synthesis” (The Texas A&M University System, priority 2020, published 2023)", "system": "bEnd.3 cells", "assay": "SSP4 fluorescence photomicrographs of bEnd.3 cells with or without AP39 and PEG-OAC", "assay_type": "cell-based", "settings": "PEG-OACs 4 mg/L", "data": [{"smiles": "O=C(CCCCCCCCC[P+](c1ccccc1)(c1ccccc1)c1ccccc1)Oc1ccc(-c2cc(=S)ss2)cc1.[Br-]", "note": "[AP39]", "values": [{"measurement": "SSP4 fluorescence, agent alone relative to control", "result": "increases the fluorescence signal"}]}]}
